ChEMBL document CHEMBL1132818, “Use of bicuculline, a GABA antagonist, as a template for the development of a new class of ligands showing positive allosteric modulation of the GABA(A) receptor” (Bioorg Med Chem Lett, 2000)

Experiments:
[1] = target: T1, GABA-A receptor; alpha-1/beta-2/gamma-2 (Rattus norvegicus) (UniProt P18508+P62813+P63138); test: (§1) Percent GABA current elicited in Xenopus laevis oocytes expressing rat GABA-A alpha-1-beta-2-gamma-2 subunits at 100 uM [(-)inhibition, (+)stimulation]; assay type: functional, cell-based; details: Oocyte
[2] = target: T2, GABA-A receptor; anion channel (Rattus norvegicus) (UniProt O09028+P15431+P18506+P18508+P19969+P20236+P23574+P23576+P28471+P28473+P30191+P62813+P63079+P63138+Q91ZM7+Q9ES14); test: Displacement of [3H]flunitrazepam from GABA-A receptor of rat brain membrane preparations at 10 uM
[3] = target: T2, GABA-A receptor; anion channel (Rattus norvegicus); test: Displacement of [3H]flunitrazepam from GABA-A receptor of rat brain membrane preparations at 100 uM
[4] = target: T2, GABA-A receptor; anion channel (Rattus norvegicus); test: In vitro displacement of [35S]TBPS from Gamma-aminobutyric acid A receptor of rat brain membrane preparations at 10 uM
[5] = target: T2, GABA-A receptor; anion channel (Rattus norvegicus); test: In vitro displacement of [35S]TBPS from Gamma-aminobutyric acid A receptor of rat brain membrane preparations at 100 uM
[6] = target: T2, GABA-A receptor; anion channel (Rattus norvegicus); test: In vitro displacement of [3H]muscimol from Gamma-aminobutyric acid A receptor of rat brain membrane preparations at 100 uM
[7] = target: T2, GABA-A receptor; anion channel (Rattus norvegicus); test: In vitro displacement of [3H]muscimol from Gamma-aminobutyric acid A receptor of rat brain membrane preparations at 10 uM
[8] = target: T2, GABA-A receptor; anion channel (Rattus norvegicus); test: Displacement of [3H]flunitrazepam from GABA-A receptor of rat brain membrane preparations at 100uM, Limited solubility
[9] = target: GABA-A receptor; anion channel; test: Displacement of [3H]flunitrazepam from GABA-A receptor of rat cerebellar tissue; assay type: protein-complex assay
[10] = target: GABA-A receptor; anion channel; test: Displacement of [3H]flunitrazepam from GABA-A receptor of rat forebrain tissue
[11] = target: T2, GABA-A receptor; anion channel (Rattus norvegicus); test: In vitro displacement of [3H]-muscimol from Gamma-aminobutyric acid A receptor of rat brain membrane preparations at 100 uM (Limited solubility)
[12] = target: T1, GABA-A receptor; alpha-1/beta-2/gamma-2 (Rattus norvegicus); test: Percent GABA current elicited in Xenopus laevis oocytes expressing rat GABA-A alpha-1-beta-2-gamma-2 subunits at 10 uM [(-)inhibition, (+)stimulation]; assay type: functional, cell-based; details: Oocyte
[13] = target: T1, GABA-A receptor; alpha-1/beta-2/gamma-2 (Rattus norvegicus); details: Oocyte, 1 uM
Description: Percent GABA current elicited in Xenopus laevis oocytes expressing rat GABA-A alpha-1-beta-2-gamma-2 subunits at 1 uM [(-)inhibition, (+)stimulation]

[14] = target: T2, GABA-A receptor; anion channel (Rattus norvegicus); details: Brain, Membrane, 10 nM
Description: Displacement of [3H]flunitrazepam from GABA-A receptor of rat brain membrane preparations at 10 nM

[15] = target: T2, GABA-A receptor; anion channel (Rattus norvegicus); test: In vitro displacement of [35S]TBPS from Gamma-aminobutyric acid A receptor of rat brain membrane preparations at 100 uM (Limited solubility)
[16] = target: T1, GABA-A receptor; alpha-1/beta-2/gamma-2 (Rattus norvegicus); test: Percent GABA current elicited in Xenopus laevis oocytes expressing rat GABA-A alpha-1-beta-2-gamma-2 subunits at 50 uM [(-)inhibition, (+)stimulation]; assay type: functional, cell-based; details: Oocyte
[17] = as §1; assay type: functional, Oocyte

SMILES	GABA current [1] [%]	Displacement [2] [%]	Displacement [3] [%]	Displacement [4] [%]	Displacement [5] [%]	Displacement [6] [%]	Displacement [7] [%]	also measured
COc1cc2c(cc1OC)[C@@H]([C@H]1C=CC(=O)O1)N(C(=O)OCc1ccccc1)CC2	43	15	51	5	50	10	7	
CC1=C[C@H]([C@@H]2c3cc4c(cc3CCN2C)OCO4)OC1=O	-7	6	30	1	3	5		
CC1=C[C@H]([C@@H]2c3ccccc3CCN2C(=O)OCc2ccccc2)OC1=O	208	27		20			-4	Displacement [8]: Insoluble; IC50 [9]: 17 µM; IC50 [10]: 25 µM; Displacement [11]: Insoluble
O=C1C=C[C@@H]([C@@H]2c3ccccc3CCN2C(=O)OCc2ccccc2)O1	281	93		14	82	-13	-12	
O=C1CC[C@@H]([C@@H]2c3ccccc3CCN2C(=O)OCc2ccccc2)O1	351	96		11	82	-2	-18	IC50 [9]: 0.06 µM; IC50 [10]: 0.16 µM; GABA current [12]: 111%
CN1CCc2cc3c(cc2[C@H]1[C@@H]1OC(=O)c2c1ccc1c2OCO1)OCO3	-100		7		-1		45	
CN1C(=O)CN=C(c2ccccc2)c2cc(Cl)ccc21				25		-13		GABA current [13]: 300%; Displacement [14]: 33%
O=C1C=C[C@H]([C@@H]2c3ccccc3CCN2C(=O)OCc2ccccc2)O1	225	51		18	85	-2	-9	
COc1cc2c(cc1OC)[C@@H]([C@H]1C=C(C)C(=O)O1)N(C(=O)OCc1ccccc1)CC2	60		31		63	-23		
O=C1C=C[C@H]([C@@H]2c3cc4c(cc3CCN2C(=O)OCc2ccccc2)OCO4)O1		27		18			-7	Displacement [15]: Insoluble; GABA current [16]: 128%; Displacement [11]: Insoluble
COc1cc2c(cc1OC)[C@@H]([C@H]1C=C(C)C(=O)O1)N(C)CC2	-10		12		4	-1		
CC1=C[C@@H]([C@@H]2c3ccccc3CCN2C(=O)OCc2ccccc2)OC1=O	130	43		16			-7	IC50 [9]: 7 µM; IC50 [10]: 12 µM; Displacement [11]: Insoluble
O=C1C=C[C@@H]([C@@H]2c3cc4c(cc3CCN2C(=O)OCc2ccccc2)OCO4)O1		20		19			-5	Displacement [15]: Insoluble; GABA current [16]: 215%; Displacement [11]: Insoluble
COc1cc2c(cc1OC)[C@@H]([C@@H]1C=C(C)C(=O)O1)N(C)CC2	-8		8		2	4		
COc1cc2c(cc1OC)[C@@H]([C@@H]1C=CC(=O)O1)N(C(=O)OCc1ccccc1)CC2	20	5	15	5	47	-1		
CC1=C[C@@H]([C@@H]2c3cc4c(cc3CCN2C)OCO4)OC1=O			21		3	3		GABA current [17]: -3%
COc1cc2c(cc1OC)[C@@H]([C@@H]1C=C(C)C(=O)O1)N(C(=O)OCc1ccccc1)CC2	24		4		11	-1		
